Experimental data: patent US20230183263A1, “COMBINATION FOR TREATING HEPATITIS B” (FUJIAN AKEYLINK BIOTECHNOLOGY CO., LTD., priority 2020, published 2023)

Legend:
[1] = Cytotoxicity in HepG2-NTCP cells by CellTiter-Glo; type: cell-based, human; details: human, single drug, day 9
Description: (§1) In this study, HepG2-NTCP cell in vitro infection model was used to evaluate the inhibitory activity of a combined administration of compound WWSO with Entecavir (ETV) on HBV The content of HBV DNA in cell supernatant was detected by real-time quantitative PCR (qPCR) method, and the content of HBeAg and HBsAg was detected by ELISA, and the anti-HBV activity of the combined action of the compound was determined, while CellTiter-Glo was used to detect the effect of the test compound on cell viability.
(§2) Cell line: HepG2-NTCP cell line was constructed and provided by WuXi AppTec. HepG2-NTCP cells were HepG2 cells stably transfected and continued to highly express the human NTCP gene, and were susceptible to be infected by HBV The cell medium was DMEM medium added with 10% fetal bovine serum, 1% Penicillin-Streptomycin, 1% glutamine, 1% non-essential amino acids and G418 (500 µg/mL).
(§3) 2.5 On day 9, cell plate supernatant treated by compound was collected and DNA was extracted according to the QIAamp 96 DNA Blood Kit (12) instructions. HBeAg and HBsAg were detected according to the instructions of ELISA detection kit, meanwhile, the cytotoxicity of compound pairs was detected by CellTiter-Glo kit, and the chemiluminescence intensity (RLU) of each cell well was detected by multifunctional microplate reader according to the method of kit instructions. HBV DNA was quantified by qPCR method. HBV plasmid DNA was used as the standard, and standard HBV plasmid DNA concentration was diluted 7 points starting from 10^7 copies/µL at a 10-fold gradient. The HBV DNA copy number was calculated in each test sample by fitting the standard curve using the HBV DNA copy number and CT values of each standard.

D-type HBV [2] = test: Single drug anti-HBV activity in HepG2-NTCP in vitro infection model; type: cell-based, Hepatitis B Virus; details: for EC50: Hepatitis B virus, 216 h, HepG2-NTCP
Description: as §1, §2
Virus: D-type HBV was concentrated from HepG2.2.15 cell culture supernatants.
2.1 On day 0, HepG2-NTCP cells were seeded into a 48-well cell culture plate at a density of 75,000 cells/well, and then the cells were cultured at 5% CO2 and 37° C. overnight.
2.2 On day 2, HBV was added to infect HepG2-NTCP cells.
2.3 On day 3, WWSO and ETV single drugs were administered at seven different concentrations, respectively, or WWSO in combination with ETV was administered at 5 different concentrations in orthorhombic proportion, added to 48-well plates with each combination having three duplicate plates.
2.4 On day 6, the cell supernatant was discarded and fresh medium containing the compounds was added, and the cells were cultured at 5% CO2 and 37° C. for 3 days.
as §3

D-type HBV [3] = test: Combined administration in HBV-infected PHH, 5x5 matrix, MacSynergy II analysis; type: cell-based, Hepatitis B Virus; details: two-drug combination with Peg-IFNα-2a; for antagonistic index (inhibition of HBsAg and HBeAg): 95% confidence interval
Description: On day 0, primary human hepatocytes were resuscitated and plated into six 48-well plates (1.32×10^5 cells/well).
On day 1, […] (2000 GE/cell). On the second day, different groups of combined drugs were added for treatment:
The arrangement of the compounds in the combined action is shown in Table 2, and the test concentrations of the compounds are shown in Table 3.
(§4) The final concentration of DMSO in the cell medium was 2%. The medium was replaced with the medium containing the compound on days 4 and 6. On day 8, the culture supernatant was collected for detecting HBV DNA, HBeAg and HBsAg, and then the collected supernatant was added with CellTiter-Glo to measure cell viability.
The arrangement of the compounds in the combined action is shown in Table 4, and the test concentrations of the compounds are shown in Table 5.
as §4, with “in the medium was” for “in the cell medium was”, “the collected cell supernatant was” for “the collected supernatant was”
(§5) HBV DNA detection: DNA in the supernatant was extracted according to the DNA extraction kit (Qiagen-51162), and HBV DNA in the sample was quantified by qPCR method, and the qPCR reaction system is shown in Table 6. HBV plasmid DNA was used as a standard for 10-fold serial dilution, and the standard range was from 1.0× 10^7 copies/µL to 10 copies/µL. The PCR reaction program was: Heating at 95° C. for 10 minutes, then cycle mode was entered, and heating at 95° C. for 15 seconds, then at 60° C. for 1 minute for a total of 40 cycles. The HBV DNA content in the samples was calculated based on the standard curve and the Ct value of each sample.
(§6) Detection of HBeAg and HBsAg: According to the instructions of ELISA kit, the levels of HBeAg and HBsAg in supernatant were detected. The method was briefly described as follows: 50 µL, of standard was taken, and sample and control sample were added into the detection plate, then 50 µL of enzyme conjugate was added to each well, incubated at 37° C. for 60 minutes, and washed with a washing solution and then dried, and then 50 µL of pre-mixed luminescent substrate was added and the mixture was incubated at room temperature for 10 minutes in the dark, and finally the luminescence value was measured by a microplate reader. The content of HBeAg and HBsAg in the sample was calculated according to the standard curve and the chemiluminescence value of each sample.
(§7) Inhibition rate %=(1- HBV DNA content or HBsAg content or HBeAg content in the sample/HBV DNA content or HBsAg content or HBeAg content in DMSO control group) × 100
Combined efficacy was analyzed by MacSynergy™ II software.

HepG2-NTCP cells = test: Cytotoxicity in HepG2-NTCP cells by CellTiter-Glo; type: cell-based, human; details: single drug and combined action experiments
Description: as §1, §2, §3

[4] = Cell viability of PHH by CellTiter-Glo; type: cell-based, human; details: human, primary human hepatocytes (PHH), HBV infection model, administration after infection, Day 22
Description: (§8) The medium was replaced with the fresh medium containing the compound on days 4, 6, 8, 10, 12, 14, 16, 18 and 20. On day 22, the culture supernatant was collected and cell viability was detected using CellTiter-Glo. The final concentration of DMSO in the cell medium was 2%. The medium was replaced with the medium containing the compound on days 4 and 6. On day 8, the culture supernatant was collected for detecting HBV DNA, HBeAg and HBsAg, and then the collected supernatant was added with CellTiter-Glo to measure cell viability. The final concentration of DMSO in the medium was 2%. The medium was replaced with the medium containing the compound on days 4 and 6. On day 8, the culture supernatant was collected for detecting HBV DNA, HBeAg and HBsAg, and then the collected cell supernatant was added with CellTiter-Glo to measure cell viability. Cell viability detection: After collecting the cell culture supernatant, CellTiter-Glo was diluted with medium at a ratio of 1:1, and added to the cell plate, and left at room temperature for 10 minutes to detect the luminescence value with a microplate reader. Cell activity% = (luminescence value of sample-average value of blank control well)/(luminescence value of DMSO control group-average value of blank control well) × 100 CC50 and EC50 were calculated by GraphPad Prism software, and the inhibition curve fitting method was sigmoidal dose-response (variable slope).

[5] = system: human primary hepatocytes (PHH); test: Cell viability of PHH by CellTiter-Glo; type: cell-based
Description: as §8

D-type HBV [6] = test: Single drug in vitro antiviral activity in HBV-infected PHH (HBV DNA qPCR, HBeAg and HBsAg ELISA); type: cell-based, Hepatitis B Virus; details: for EC50: Hepatitis B virus, 192 h, Day 8
Description: 1. The PHH model was used to evaluate the single drug in vitro antiviral activity of the test compound
On day 0, primary human hepatocytes were resuscitated and plated into two 48-well plates (1.32×10^5 cells/well).
On day 1, HBV was added to infect PHH (2000 GE/cell). […] Fresh medium with compound was replaced every 1 to 2 days.
The final concentration of DMSO in the medium was 2%.
The medium was replaced with the fresh medium containing the compound on days 4, 6, 8, 10, 12, 14, 16, 18 and 20. On day 22, the culture supernatant was collected and cell viability was detected using CellTiter-Glo.
Cell culture supernatants on days 8, 14 and 22 were collected for HBV DNA, HBeAg and HBsAg detection.
as §5, §6, §7
CC50 and EC50 were calculated by GraphPad Prism software, and the inhibition curve fitting method was sigmoidal dose-response (variable slope).

| EC50 (D-type HBV [2]; day 9, read-out: HBV DNA EC50) | EC50 (D-type HBV [2]; day 9, read-out: HBeAg EC50) | EC50 (D-type HBV [2]; day 9, read-out: HBsAg EC50) | Structure (SMILES) | CC50 at 9 day of experiment (read-out) [1] | combined effect on the inhibition of HBsAg and HBeAg (D-type HBV [3]) | antagonistic index (inhibition of HBsAg and HBeAg) (D-type HBV [3]) | further results |
| --- | --- | --- | --- | --- | --- | --- | --- |
| 0.06 nM | > 20 nM | > 20 nM | C=C1[C@H](CO)[C@@H](O)C[C@@H]1n1cnc2c(=O)[nH]c(N)nc21 [ETV, Entecavir, reference compound] | > 20 nM | – | – | – |
| – | – | – | COCCCOc1cc2c(cc1OC)-c1cc(=O)c(C(=O)O)cn1[C@H](c1sccc1Cl)O2 [WWS02] | – | synergistic or additive effects | 0 | – |
| – | – | – | O=C(O)c1cn2c(cc1=O)-c1cc(Cl)c(OCCN3CCOCC3)cc1OC2c1ccccc1 (stereo not drawn) [WWS01] | – | synergistic or additive effects | 0 | – |
| – | – | – | O=C(O)c1cn2c(cc1=O)-c1cc(Cl)c(OCC3CC3)cc1O[C@H]2c1scnc1Cl [WWS03] | – | synergistic or additive effects | 0 | – |
| 1.01 nM | 2.51 nM | 3.19 nM | COCCCOc1cc2c(cc1Cl)-c1cc(=O)c(C(=O)O)cn1[C@H](c1cccs1)O2 [WWS0] | > 100 nM | – | – | cytotoxicity within the test concentration range (HepG2-NTCP cells): no obvious cytotoxicity; inhibition of HBV DNA, HBeAg and HBsAg (D-type HBV [2]; HepG2-NTCP infected by HBV): dose-dependent manner; CC50 at 22 day of experiment (read-out) [4]: > 1000 nM; CC50 ([5]; administration before infection, Day 22): > 1000 nM; cytotoxicity within the test concentration range ([5]; single drug and combined action experiment): no obvious cytotoxicity; EC50 (D-type HBV [6]; PHH, administration after infection, read-out: EC50 (Day 8) HBV DNA): 45.5 nM; EC50 (D-type HBV [6]; PHH, administration after infection, read-out: EC50 (Day 8) HBeAg): 32.4 nM; EC50 (D-type HBV [6]; PHH, administration after infection, read-out: EC50 (Day 8) HBsAg): 47.3 nM; EC50 (D-type HBV [6]; PHH, administration before infection, read-out: EC50 (Day 8) HBV DNA): 13.5 nM; EC50 (D-type HBV [6]; PHH, administration before infection, read-out: EC50 (Day 8) HBeAg): 26 nM; EC50 (D-type HBV [6]; PHH, administration before infection, read-out: EC50 (Day 8) HBsAg): 47.1 nM; inhibition of HBV DNA, HBeAg and HBsAg (D-type HBV [6]; PHH in vitro infection model, single drug): dose-dependent manner; inhibition of HBV replication, administration before versus after HBV infection (D-type HBV [6]; PHH, two modes of administration compared): basically the same |
